Holding throughout (format): functional, cell-based
In experiment [1] the test system is MCF7. The experiment can be described thus: Inhibition of G2 check point in gamma-irradiated human MCF7 cells expressing mutant p53 after 16 hrs by flow cytometry. To be noted: MCF7, light or radiation study.
The test system of experiment [2] is MCF7. In words: Cytotoxicity against human MCF7 cells after 16 hrs by Celltiter assay. To be noted: MCF7, 16 h.
The subject of the next experiment is HCT-116. The experiment can be described thus: Cytotoxicity against human HCT116 cells.

Values after ≈ are worked out from the molar mass of the structure shown.

In the case of `O=C1NC(=O)c2c1c1[nH]cnc1c1[nH]c3ccccc3c21` [GRANULATIMIDE], the IC50 in the experiment with MCF7 [1] is 1 µM.
For `O=C1NC(=O)c2c1c1c3ccccc3[nH]c1n1cncc21` [ISOGRANULATIMIDE], the results for the 50% inhibitory concentration (IC50) with MCF7 [1] and in the experiment with MCF7 [2] were 1 µM and 40 µM, respectively.
Turning to `CC(=O)OCC(C)CCC[C@@H](C)[C@H]1CC[C@H]2[C@@H]3C[C@@H](O)[C@@]4(O)C[C@@H](O[C@@H]5OC[C@@H](O)[C@@H](OC(C)=O)[C@@H]5O)CC[C@]4(C)[C@H]3CC[C@]12C` (stereo not given in full) [RIISEIN A], 2 µg/mL (≈ 3.06 µM) corresponded to half-maximal inhibition in the experiment on HCT-116 (IC50).
On the same count and under the same terms, then `CC(=O)OCC(C)CCC[C@@H](C)[C@H]1CC[C@H]2[C@@H]3C[C@@H](O)[C@@]4(O)C[C@@H](O[C@@H]5OC[C@@H](OC(C)=O)[C@@H](O)[C@@H]5O)CC[C@]4(C)[C@H]3CC[C@]12C` (stereo not given in full) [RIISEIN B], with 2 µg/mL (≈ 3.06 µM).

As usually defined, the IC50 is the point on the concentration scale where inhibition reaches its midpoint.
